Holding throughout (test): biochemical
Test [1] deals with TcTryS (Trypanosoma cruzi trypanothione synthetase) (Trypanosoma cruzi, UniProt Q9GT49). In kind it is biochemical. To be noted: for remaining activity at 30 µM: read-out: TcTryS Activity ± 2σn-1 (%); for inhibition at 30 µM: read-out: % TcTryS inhibition ± 2σn-1.
Test [2] addresses LiTryS (Leishmania infantum trypanothione synthetase) (Leishmania infantum, UniProt A4I2Z3). In kind it is biochemical. To be noted: for activity at 30 µM: read-out: LiTryS Activity ± 2σn-1 (%); for inhibition at 30 µM: read-out: % LiTryS inhibition ± 2σn-1.
Test [3] deals with TbTryS (Trypanosoma brucei trypanothione synthetase) (Trypanosoma brucei brucei, UniProt Q8IEX1). As to conditions: for activity at 30 µM: read-out: TbTryS Activity ± 2σn-1 (%); for inhibition at 30 µM: read-out: % TbTryS inhibition ± 2σn-1.
Sequence of TbTryS (Trypanosoma brucei trypanothione synthetase) (Q8IEX1 1-627): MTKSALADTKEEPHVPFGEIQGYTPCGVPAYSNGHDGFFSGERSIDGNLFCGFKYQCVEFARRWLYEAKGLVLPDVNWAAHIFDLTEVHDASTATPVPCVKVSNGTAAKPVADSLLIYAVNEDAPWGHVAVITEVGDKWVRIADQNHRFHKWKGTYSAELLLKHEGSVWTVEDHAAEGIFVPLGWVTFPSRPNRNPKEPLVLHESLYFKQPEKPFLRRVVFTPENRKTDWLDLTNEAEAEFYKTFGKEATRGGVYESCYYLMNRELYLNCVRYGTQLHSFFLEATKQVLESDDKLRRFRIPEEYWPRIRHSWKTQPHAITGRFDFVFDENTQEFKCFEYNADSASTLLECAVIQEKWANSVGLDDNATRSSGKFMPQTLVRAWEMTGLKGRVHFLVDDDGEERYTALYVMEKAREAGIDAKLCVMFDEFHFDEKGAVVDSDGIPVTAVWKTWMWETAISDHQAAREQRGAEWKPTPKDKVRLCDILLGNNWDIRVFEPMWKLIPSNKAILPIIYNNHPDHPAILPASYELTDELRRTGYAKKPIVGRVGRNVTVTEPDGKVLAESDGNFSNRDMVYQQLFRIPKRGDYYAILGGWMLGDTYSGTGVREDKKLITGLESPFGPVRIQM

By IC50 is commonly meant the concentration that inhibits the measured activity by half. As a reminder, the inhibition is the drop in the measured response relative to a control, in per cent.

The structures appear in SMILES notation. Several values for one entry are separate records, joined by “and”; a condition that tells them apart may be missing. Identical values can stand only once.

Sequence of TcTryS (Trypanosoma cruzi trypanothione synthetase) (Q9GT49 whole entry): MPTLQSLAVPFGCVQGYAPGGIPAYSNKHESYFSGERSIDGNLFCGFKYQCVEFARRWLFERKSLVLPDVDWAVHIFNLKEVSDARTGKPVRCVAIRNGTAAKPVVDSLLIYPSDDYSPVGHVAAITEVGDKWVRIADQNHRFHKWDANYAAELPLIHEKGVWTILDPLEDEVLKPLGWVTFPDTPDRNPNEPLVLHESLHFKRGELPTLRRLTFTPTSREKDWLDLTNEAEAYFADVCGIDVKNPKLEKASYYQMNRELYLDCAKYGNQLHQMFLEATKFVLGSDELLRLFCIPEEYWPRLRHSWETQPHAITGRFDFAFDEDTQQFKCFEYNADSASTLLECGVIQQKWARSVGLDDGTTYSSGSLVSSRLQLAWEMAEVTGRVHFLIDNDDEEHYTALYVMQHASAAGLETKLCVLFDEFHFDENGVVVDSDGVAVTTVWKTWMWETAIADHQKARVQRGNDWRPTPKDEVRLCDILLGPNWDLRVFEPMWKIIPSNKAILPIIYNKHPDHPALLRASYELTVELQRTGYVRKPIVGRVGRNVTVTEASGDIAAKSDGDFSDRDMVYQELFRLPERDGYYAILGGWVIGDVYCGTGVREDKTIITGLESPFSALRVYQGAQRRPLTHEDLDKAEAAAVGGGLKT
Sequence of LiTryS (Leishmania infantum trypanothione synthetase) (A4I2Z3 1-652): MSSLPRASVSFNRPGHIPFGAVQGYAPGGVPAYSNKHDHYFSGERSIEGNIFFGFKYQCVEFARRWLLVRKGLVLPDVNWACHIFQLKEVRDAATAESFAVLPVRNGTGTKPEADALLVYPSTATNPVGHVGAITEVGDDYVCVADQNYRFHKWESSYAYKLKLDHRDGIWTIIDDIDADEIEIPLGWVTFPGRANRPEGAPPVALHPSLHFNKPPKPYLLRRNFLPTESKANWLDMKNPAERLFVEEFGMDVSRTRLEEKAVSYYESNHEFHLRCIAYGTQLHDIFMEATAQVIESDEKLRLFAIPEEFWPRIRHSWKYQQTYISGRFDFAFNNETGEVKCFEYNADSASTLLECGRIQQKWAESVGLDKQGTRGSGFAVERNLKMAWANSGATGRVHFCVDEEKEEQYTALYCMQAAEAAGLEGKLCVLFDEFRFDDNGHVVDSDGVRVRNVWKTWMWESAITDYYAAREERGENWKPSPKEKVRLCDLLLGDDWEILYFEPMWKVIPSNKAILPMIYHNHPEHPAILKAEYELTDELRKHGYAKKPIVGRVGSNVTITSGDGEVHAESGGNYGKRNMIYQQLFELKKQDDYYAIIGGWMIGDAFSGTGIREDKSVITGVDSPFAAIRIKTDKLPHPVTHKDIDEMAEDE

Turning to `COc1cc(CNCCCCCCCCCCNCc2ccc(OCc3ccccc3)c(OC)c2)ccc1OCc1ccccc1` [APC1-119], in test [1], the “TcTryS Activity ± 2σn-1 (%)” value is on record as 101.5 ± 1.9; 4 (1.18) %. Moreover, the “LiTryS Activity ± 2σn-1 (%)” value in test [2] was 78.1 ± 9.8; 6 (1.219) %. The “TbTryS Activity ± 2σn-1 (%)” value in test [3] is given as 55.5 ± 1.8. 3 (1.11) %.
For `COc1cc(CNCCCCCCNCc2ccc(O)c(OC)c2)ccc1O` [APC1-121] the same measures were 92.9 ± 5.0; 4%, 95.0 ± 7.8; 4% and 91.1 ± 4.8; 3%.
For `COc1cc(CNCCCCCCCCNCc2ccc(O)c(OC)c2)ccc1O` [APC1-122] the same measures were 94.5 ± 7.0; 4%, 102.8 ± 8.6; 3% and 91.6 ± 3.6; 3%.
For `COc1cc(CNCCCCCCCCCCNCc2ccc(O)c(OC)c2)ccc1O` [APC1-123] the same measures were 88.8 ± 6.5; 4%, 94.3 ± 8.2; 3% and 86.0 ± 5.5; 3%.
Regarding `CCCCn1c(=O)[nH]c(=O)c2c1nc(CSc1cccc(C(F)(F)F)c1)n2C` [Compound C3, reference compound], the “TcTryS Activity ± 2σn-1 (%)” value in test [1] is given as 91.1 ± 4.6; 4%. The “LiTryS Activity ± 2σn-1 (%)” value in test [2] is 84.5 ± 3.3; 3%. In test [3], the “TbTryS Activity ± 2σn-1 (%)” value is on record as 92.7 ± 3.6; 3%.
For `Cc1ccc2c(c1)no[n+]2[O-]` [Compound J10] the same measures were 92.6 ± 10.8; 3%, 84.7 ± 10.5; 4% and 92.7 ± 3.4; 3%.
In the case of `Cc1cc2no[n+]([O-])c2cc1C` [Compound J11], the “TcTryS Activity ± 2σn-1 (%)” value in test [1] is 86.4 ± 2.9; 4%. Besides, the “LiTryS Activity ± 2σn-1 (%)” value in test [2] is recorded as 103.6 ± 10.4; 3%. Moreover, the “TbTryS Activity ± 2σn-1 (%)” value in test [3] is 88.8 ± 5.8; 4%.
For `[O-][n+]1onc2cc(Cl)ccc21` [Compound J12] the same measures were 63.7 ± 0.5; 4%, 93.8 ± 3.9; 4% and 92.7 ± 2.7; 3%.
As for `[O-][n+]1onc2cc(Cl)c(Cl)cc21` [Compound J13], the “TcTryS Activity ± 2σn-1 (%)” value in test [1] is on record as 84.9 ± 4.4; 3%. For the same compound, the “LiTryS Activity ± 2σn-1 (%)” value in test [2] is reported as 102.2 ± 7.8; 3%. Further, the “TbTryS Activity ± 2σn-1 (%)” value in test [3] was 88.9 ± 2.7; 3%.
For `COc1ccc2c(c1)no[n+]2[O-]` [Compound J14] the same measures were 77.2 ± 4.4; 4%, 96.1 ± 7.3; 4% and 93.1 ± 5.6; 4%.
For `O=[N+]([O-])c1ccc2c(c1)no[n+]2[O-]` [Compound J16] the same measures were 76.5 ± 1.0; 3%, 80.1 ± 9.2; 4% and 92.6 ± 4.9; 3%.
For `[O-][n+]1onc2cc(C(F)(F)F)ccc21` [Compound J25] the same measures were 81.8 ± 2.2; 3%, 110.7 ± 2.4; 3% and 98.4 ± 4.2; 3%.
With `[O-][n+]1onc2c(Cl)cc(Cl)cc21` [Compound J26], the “TcTryS Activity ± 2σn-1 (%)” value in test [1] is 95.8 ± 1.1; 3%. In addition, in test [2], the “LiTryS Activity ± 2σn-1 (%)” value was 88.0 ± 1.0; 3%. Moreover, the “TbTryS Activity ± 2σn-1 (%)” value in test [3] is recorded as 104.9 ± 5.7; 3%.
In the case of `[O-][n+]1onc2cc(I)ccc21` [Compound J27], in test [1], the “TcTryS Activity ± 2σn-1 (%)” value is 90.1 ± 5.9; 3%. The “LiTryS Activity ± 2σn-1 (%)” value in test [2] is on record as 71.0 ± 8.0; 3%. For the same compound, the “TbTryS Activity ± 2σn-1 (%)” value in test [3] was 98.2 ± 5.6; 3%.
In the case of `[O-][n+]1onc2cc(F)ccc21` [Compound J31], in test [1], the “TcTryS Activity ± 2σn-1 (%)” value was 118.8 ± 6.1; 4 (1.00) % and the remaining activity at 30 µM amounted to 119%. The activity at 30 µM in test [2] came to 84.1 ± 0.001%. Further, in test [3], the activity at 30 µM is 96.2 ± 3.7%.
In the case of `COc1cc2no[n+]([O-])c2cc1OC` [Compound J32], the “TcTryS Activity ± 2σn-1 (%)” value in test [1] is listed as 98.1 ± 6.4; 4%. For the same compound, in test [2], the “LiTryS Activity ± 2σn-1 (%)” value is 72.7 ± 7.2; 4%. The “TbTryS Activity ± 2σn-1 (%)” value in test [3] is 93.4 ± 4.5; 4%.
For `[O-][n+]1onc2cc(Br)ccc21` [Compound J33] the same measures were 98.1 ± 4.0; 3%, 76.0 ± 6.8; 3% and 96.5 ± 6.3; 3%.
For `[O-][n+]1onc2cc(F)c(F)cc21` [Compound J40] the same measures were 87.4 ± 1.6; 3%, 92.9 ± 5.1; 4% and 85.0 ± 1.4; 2%.
For `c1ccc(CNCCCCCCCCNCc2ccccc2)cc1` [EAP1-5 (I)], the “TcTryS Activity ± 2σn-1 (%)” value in test [1] is 82.8 ± 5.2; 3%. Besides, in test [2], the “LiTryS Activity ± 2σn-1 (%)” value is listed as 62.8 ± 3.9; 4%. Besides, the “TbTryS Activity ± 2σn-1 (%)” value in test [3] is recorded as 78.3 ± 3.6; 4%.
For `c1ccc(CNCCCCCCCCCCCCNCc2ccccc2)cc1` [EAP1-9] the same measures were 87.3 ± 5.4; 4%, 89.6 ± 9.4; 3% and 74.9 ± 4.1; 4%.
For `COc1ccc(CNCCCCCCCCCCCCNCc2ccc(OC)cc2)cc1` [EAP1-11] the same measures were 82.8 ± 7.6; 3%, 62.0 ± 7.8; 4% and 77.2 ± 4.5; 5 (1.30) %.
As to `CC(C)c1ccc(CNCCCCCCCCNCc2ccc(C(C)C)cc2)cc1` [EAP1-37], in test [1], the “TcTryS Activity ± 2σn-1 (%)” value is 65.6 ± 5.3; 4 (1.46) %. Moreover, in test [2], the “LiTryS Activity ± 2σn-1 (%)” value is given as 77.4 ± 7.9; 9 (1.284) %. The “TbTryS Activity ± 2σn-1 (%)” value in test [3] was 56.8 ± 5.6; 3 (1.43) %.
For `Fc1ccc(CNCCCCCCCCNCc2ccc(F)cc2)cc1` [EAP1-39] the same measures were 96.0 ± 4.0; 4%, 69.6 ± 5.5; 4% and 85.7 ± 2.0; 3%.
For `Clc1ccc(CNCCCCCCCCNCc2ccc(Cl)cc2)cc1` [EAP1-43] the same measures were 87.9 ± 4.7; 4%, 78.0 ± 5.9; 4% and 69.7 ± 3.0; 4%.
For `Cc1ccc(CNCCCCCCCCNCc2ccc(C)cc2)cc1` [EAP1-45] the same measures were 92.3 ± 4.5; 4%, 91.9 ± 2.7; 3% and 78.4 ± 0.6; 3%.
Take `Brc1ccc(CNCCCCCCCCNCc2ccc(Br)cc2)cc1` [EAP1-46]: the “TcTryS Activity ± 2σn-1 (%)” value in test [1] is reported as 93.7 ± 7.6; 3%. The “LiTryS Activity ± 2σn-1 (%)” value in test [2] is 61.8 ± 3.9; 3%. Further, the “TbTryS Activity ± 2σn-1 (%)” value in test [3] is listed as 73.4 ± 1.7; 3%.
For `Fc1ccc(CNCCCCCCCCCCNCc2ccc(F)cc2)cc1` [EAP1-51] the same measures were 87.5 ± 4.6; 4%, 80.6 ± 2.7; 4% and 81.0 ± 7.5; 3%.
For the compound `Clc1ccc(CNCCCCCCCCCCNCc2ccc(Cl)cc2)cc1` [EAP1-53], in test [1], the “TcTryS Activity ± 2σn-1 (%)” value is given as 73.3 ± 2.3; 4%. The “LiTryS Activity ± 2σn-1 (%)” value in test [2] is on record as 69 ± 5.7; 4 (1.305) %. Besides, the “TbTryS Activity ± 2σn-1 (%)” value in test [3] is on record as 63.9 ± 4.1; 4 (1.34) %.
For `Cc1ccc(CNCCCCCCCCCCNCc2ccc(C)cc2)cc1` [EAP1-55] the same measures were 68.6 ± 3.9; 2%, 71.5 ± 5.8; 4% and 61.8 ± 4.8; 3%.
For `Brc1ccc(CNCCCCCCCCCCNCc2ccc(Br)cc2)cc1` [EAP1-57] the same measures were 81.2 ± 4.2; 3%, 75.2 ± 4.5; 3% and 62.6 ± 3.6; 3 (1.26) %.
For `Clc1ccc(CNCCCCCCCCCCCCNCc2ccc(Cl)cc2)cc1` [EAP1-67], in test [1], the “% TcTryS inhibition ± 2σn-1” value is 23.8 ± 6.6%; (1.34) and the “TcTryS Activity ± 2σn-1 (%)” value is reported as 76.2 ± 6.6; 4 (1.34) %. Moreover, the IC50 in test [2] (read-out: LiTryS IC50 (estimated)) was roughly 30 µM. Further, in test [3], the “% TbTryS inhibition ± 2σn-1” value is reported as 42.4 ± 1.6%; (1.33) and the “TbTryS Activity ± 2σn-1 (%)” value is given as 57.6 ± 1.6; 4 (1.33) %.
Turning to `Fc1ccc(CNCCCCCCCCCCCCNCc2ccc(F)cc2)cc1` [EAP1-69], in test [1], the “% TcTryS inhibition ± 2σn-1” value is listed as ~ 50% and the “TcTryS Activity ± 2σn-1 (%)” value is reported as 56.3 ± 3.6; 3%. The “LiTryS Activity ± 2σn-1 (%)” value in test [2] is reported as 63.2 ± 5.0; 4%. Also, the “TbTryS Activity ± 2σn-1 (%)” value in test [3] is given as 81.4 ± 5.6; 4 (1.39) %.
In the case of `[O-][n+]1onc2ccccc21` [J09/J34], the “TcTryS Activity ± 2σn-1 (%)” value in test [1] was 102.2 ± 3.3; 3%. The “LiTryS Activity ± 2σn-1 (%)” value in test [2] is 84.9 ± 5.5; 4%. The “TbTryS Activity ± 2σn-1 (%)” value in test [3] was 90.9 ± 5.9; 4%.
In the case of `Cn1c(=O)c2c(nc(N/N=C\c3ccc(O)cc3O)n2CC(O)COc2ccccc2)n(C)c1=O` (stereo not shown) [TC227, (Z)-8-(2-(2,4-dihydroxybenzylidene)hydrazinyl)-7-(2-hydroxy-3-phenoxypropyl)-1,3-dimethyl-1H-purine-2,6(3H,7H)-dione], in test [1], the “% TryS activity (TcTryS)” value was 1.1 ± 3.1; 4% and 0.2 ± 3.1; 4% and 1.1 ± 2.1; 4%; the “TcTryS Activity ± 2σn-1 (%)” value is given as 161.6 ± 5.3; 3 (0.98) %; the remaining activity at 30 µM turned out to be 162%. In addition, the activity at 30 µM in test [2] amounted to 88.5 ± 7.1%. The activity at 30 µM in test [3] turned out to be 102 ± 2.3%.
Consider `CC(C)(C)NC(=O)Nc1ncc2cc(-c3ccc4c(c3)OCO4)c(NC(=O)NC(C)(C)C)nc2n1` [ZEA40], for which the inhibition at 30 µM is 50% in test [1], 15.3 ± 8.3% in test [2] and 25.3 ± 5.2% in test [3]. The activity at 30 µM in test [2] came to 84.7%; in test [3], 74.7%.
For `CCNC(=S)Nc1nc2nc(N)ncc2cc1-c1ccc2c(c1)OCO2` [ZEA41] the same measures were 50%, 13.6 ± 3.4%, 20.9 ± 4.4%, 86.4% and 79.1%.

The values are drawn from article PMC4829233, “Identification of Novel Chemical Scaffolds Inhibiting Trypanothione Synthetase from Pathogenic Trypanosomatids” (PLoS Neglected Tropical Diseases, 2016).
